According to ChEMBL document CHEMBL5346921, “Discovery of novel benzamide derivatives bearing benzamidophenyl and phenylacetamidophenyl scaffolds as potential antitumor agents via targeting PARP-1” (Eur J Med Chem, 2023):
Calls of active or inactive are those of the source. No cut-off for these calls is given here.

Key:
[1] = Selectivity index, ratio of IC50 for cytotoxicity against human NCM460 cells to IC50 for antiproliferative activity against human HCT-116 cells; type: toxicity, cell-based; conditions: NCM460 cells and HCT-116 cells, read-out: Ratio IC50
[2] = tested on: SW480; assay: cells; conditions: Homo sapiens, SW480, 48 h
Description: Antiproliferative activity against human SW480 cells assessed as reduction in cell viability incubated for 48 hrs by MTT assay

[3] = tested on: DLD-1; assay: Antiproliferative activity against human DLD-1 cells assessed as reduction in cell viability incubated for 48 hrs by MTT assay; type: functional, cell-based; conditions: DLD-1, 48 h
[4] = tested on: HCT-116; assay: cells; conditions: Homo sapiens, HCT-116, 48 h
[5] = Cytotoxicity against human NCM460 cells assessed as reduction in cell viability incubated for 48 hrs by MTT assay; type: toxicity, cell-based
[6] = target: Poly [ADP-ribose] polymerase 1 (Homo sapiens, UniProt P09874); assay: Inhibition of human PARP-1 by ELISA
Chain of Poly [ADP-ribose] polymerase 1 (P09874 whole entry): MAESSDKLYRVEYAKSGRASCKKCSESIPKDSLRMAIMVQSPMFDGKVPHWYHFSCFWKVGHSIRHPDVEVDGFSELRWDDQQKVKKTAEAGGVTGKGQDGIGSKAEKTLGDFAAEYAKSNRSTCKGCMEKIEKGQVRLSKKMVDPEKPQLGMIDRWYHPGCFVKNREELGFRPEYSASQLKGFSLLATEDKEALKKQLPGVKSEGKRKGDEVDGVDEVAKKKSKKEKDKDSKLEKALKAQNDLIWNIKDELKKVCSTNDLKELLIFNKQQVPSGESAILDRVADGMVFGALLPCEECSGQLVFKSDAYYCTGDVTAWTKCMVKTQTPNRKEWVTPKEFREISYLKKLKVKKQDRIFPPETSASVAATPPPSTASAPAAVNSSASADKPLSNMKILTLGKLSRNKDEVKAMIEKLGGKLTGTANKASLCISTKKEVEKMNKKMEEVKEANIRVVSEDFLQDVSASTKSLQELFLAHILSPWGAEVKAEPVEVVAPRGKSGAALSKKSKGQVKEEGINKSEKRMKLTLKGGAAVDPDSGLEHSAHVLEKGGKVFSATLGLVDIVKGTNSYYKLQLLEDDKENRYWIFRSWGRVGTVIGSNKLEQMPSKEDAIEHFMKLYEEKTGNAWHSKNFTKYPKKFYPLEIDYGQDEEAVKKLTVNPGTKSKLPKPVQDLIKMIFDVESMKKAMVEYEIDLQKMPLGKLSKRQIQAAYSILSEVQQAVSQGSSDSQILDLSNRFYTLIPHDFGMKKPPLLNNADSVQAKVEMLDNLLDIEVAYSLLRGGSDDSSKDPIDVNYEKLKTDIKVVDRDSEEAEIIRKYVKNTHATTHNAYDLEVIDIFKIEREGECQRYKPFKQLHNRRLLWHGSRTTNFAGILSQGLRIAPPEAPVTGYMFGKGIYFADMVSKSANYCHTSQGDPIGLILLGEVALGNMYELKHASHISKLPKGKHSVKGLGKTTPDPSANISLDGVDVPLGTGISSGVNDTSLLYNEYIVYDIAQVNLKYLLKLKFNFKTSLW

[7] = target: Poly [ADP-ribose] polymerase 2 (Homo sapiens, UniProt Q9UGN5); assay: Inhibition of human PARP-2 by ELISA
Chain of Poly [ADP-ribose] polymerase 2 (Q9UGN5 whole entry): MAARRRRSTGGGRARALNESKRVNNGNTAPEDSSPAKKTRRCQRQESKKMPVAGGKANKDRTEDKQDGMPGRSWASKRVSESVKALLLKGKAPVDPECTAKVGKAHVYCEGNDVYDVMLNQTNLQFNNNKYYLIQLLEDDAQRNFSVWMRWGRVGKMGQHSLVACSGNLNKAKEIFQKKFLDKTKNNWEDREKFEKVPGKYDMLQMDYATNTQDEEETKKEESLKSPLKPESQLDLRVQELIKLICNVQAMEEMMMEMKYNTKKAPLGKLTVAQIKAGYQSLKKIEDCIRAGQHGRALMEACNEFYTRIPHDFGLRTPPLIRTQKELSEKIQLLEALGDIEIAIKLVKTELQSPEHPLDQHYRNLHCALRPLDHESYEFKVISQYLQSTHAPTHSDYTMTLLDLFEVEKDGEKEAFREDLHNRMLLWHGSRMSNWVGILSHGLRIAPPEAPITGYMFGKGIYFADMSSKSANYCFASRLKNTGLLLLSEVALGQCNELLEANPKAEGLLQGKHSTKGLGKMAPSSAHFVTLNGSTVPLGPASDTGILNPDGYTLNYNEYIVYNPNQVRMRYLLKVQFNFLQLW

[8] = tested on: HCT-116; assay: Induction of mitochondrial membrane potential loss in human HCT-116 cells assessed as increase in monomer JC-1 level by measuring green fluorescence intensity at 15 uM incubated for 48 hrs by immunofluorescence analysis; type: functional, cell-based
[9] = tested on: HCT-116; assay: Induction of mitochondrial membrane potential loss in human HCT-116 cells assessed as JC-1 monomer level by measuring green fluorescence intensity at 15 uM incubated for 48 hrs by JC-1 staining based flow cytometry (reference value: 3.28%); type: functional
[10] = tested on: HCT-116; assay: Induction of mitochondrial membrane potential loss in human HCT-116 cells assessed as JC-1 aggregate level by measuring red fluorescence intensity at 15 uM incubated for 48 hrs by JC-1 staining based flow cytometry (reference value: 96.72%); type: functional

SMILES	selectivity ratio [1]	IC50 [2] [µM]	IC50 [3] [µM]	IC50 [4] [µM]	IC50 at 48 h [5] [µM]	IC50 [6] [µM]	IC50 [7] [µM]	Activity [8]	Activity [9] [%]	Activity [10] [%]
NC(=O)c1ccccc1NCc1cccc(NC(=O)Nc2cccc(Br)c2)c1	17.9	19.8	7.7	7.87	154	–	–	–	–	–
NC(=O)c1ccccc1NCc1cccc(NC(=O)Cc2ccc(Cl)cc2)c1	0.9	20.2	7.86	15.7	14	–	–	–	–	–
NC(=O)c1ccccc1NCc1cccc(NC(=O)c2ccccc2Br)c1	2.88	17.2	35	22.9	65.8	–	–	–	–	–
NC(=O)c1ccccc1OCc1cccc(NC(=O)Cc2ccc(Br)cc2)c1	19	30.8	18.1	4.1	78	–	–	–	–	–
NC(=O)c1ccccc1OCc1cccc(NC(=O)c2ccc(Cl)cc2)c1	1020	33.3	13	0.33	340	0.00128	0.00436	–	–	–
NC(=O)c1ccccc1OCc1cccc(NC(=O)Cc2ccc(Cl)cc2)c1	48.8	27.4	19.6	5.86	286	–	–	–	–	–
NC(=O)c1ccccc1OCc1cccc(NC(=O)Cc2cccc(Cl)c2)c1	9.79	5.48	22	7.38	72.2	–	–	–	–	–
NC(=O)c1ccccc1NCc1cccc(NC(=O)c2cccc(Cl)c2)c1	7.58	62.4	45.4	26.4	200	–	–	–	–	–
NC(=O)c1ccccc1NCc1cccc(NC(=O)Cc2cccc(Cl)c2)c1	1.02	> 100	9.14	75.9	77.2	–	–	–	–	–
NC(=O)c1ccccc1NCc1cccc(NC(=O)c2ccccc2Cl)c1	2.78	31.7	9.14	37.8	105	–	–	–	–	–
NC(=O)c1ccccc1OCc1cccc(NC(=O)c2cccc(Br)c2)c1	–	> 100	64.9	> 100	238	–	–	–	–	–
NC(=O)c1ccccc1NCc1cccc(NC(=O)c2ccc(Cl)cc2)c1	12.5	61.1	11.8	45.2	563	–	–	–	–	–
NC(=O)c1ccccc1OCc1cccc(NC(=O)Cc2ccccc2Br)c1	22.6	8.11	9.69	8.09	183	–	–	–	–	–
NC(=O)c1ccccc1OCc1cccc(NC(=O)c2cccc(Cl)c2)c1	10.6	> 100	45.5	39.6	419	–	–	–	–	–
NC(=O)c1ccccc1NCc1cccc(NC(=O)Cc2ccc(Br)cc2)c1	2.62	8.71	14	19.6	51.3	–	–	–	–	–
NC(=O)c1ccccc1OCc1cccc(NC(=O)Cc2ccccc2Cl)c1	4.48	12.7	18.7	22.1	98.7	–	–	–	–	–
NC(=O)c1ccccc1NCc1cccc(NC(=O)Cc2ccccc2Cl)c1	4.72	10.7	29.4	13.8	65	–	–	–	–	–
NC(=O)c1ccccc1NCc1cccc(NC(=O)Cc2cccc(Br)c2)c1	5.52	8.82	22.8	23.4	129	–	–	–	–	–
NC(=O)c1ccccc1OCc1cccc(NC(=O)c2ccccc2Cl)c1	3.72	11.6	36.4	35.3	131	–	–	–	–	–
NC(=O)c1ccccc1OCc1cccc(NC(=O)Nc2cccc(Br)c2)c1	12.5	25.1	13.2	8.93	134	–	–	–	–	–
NC(=O)c1ccccc1NCc1cccc(NC(=O)c2cccc(Br)c2)c1	12.9	5.08	10	5.69	73.5	–	–	–	–	–
NC(=O)c1ccccc1NCc1cccc(NC(=O)c2ccc(Br)cc2)c1	1.59	37	44.5	37.9	60.2	–	–	–	–	–
O=C(c1cc(Cc2n[nH]c(=O)c3ccccc23)ccc1F)N1CCN(C(=O)C2CC2)CC1 [OLAPARIB]	–	39.3	13.7	26.4	319	–	–	Active	16.33	83.67
NC(=O)c1ccccc1NCc1cccc(NC(=O)Cc2ccccc2Br)c1	3.35	14	11.7	20.7	69.4	–	–	–	–	–
NC(=O)c1ccccc1OCc1cccc(NC(=O)Cc2cccc(Br)c2)c1	14.4	16	14.9	6.33	91.2	–	–	–	–	–
NC(=O)c1ccccc1OCc1cccc(NC(=O)c2ccccc2Br)c1	2.68	16.9	47	60.1	161	–	–	–	–	–
